According to PMC5321639, “Design and pharmacodynamics of recombinant NZ2114 histidine mutants with improved activity against methicillin-resistant Staphylococcus aureus” (AMB Express, 2017):
In brackets after ≈: the same amount, converted by molar mass. Where a SMILES comes first, the peptide text is derived from it. Bridges are numbered along the chain shown (N, C = ends).

Key:
S. suis CVCC3309 = assay: MIC assay; format: cell-based, Streptococcus suis; details: MHB, 1 × 10^5 CFU/ml, 37 °C, 18–24 h, triplicate
Description: (§1) The peptide solutions were diluted twofold with the range of final concentrations were 0.015–32 µg/ml (0.003–7.273 µM) for purified H1, H2, H3, H6, and H8. The test strains were grown in MHB medium at 37 °C to an OD600 of 0.4 and diluted to 1 × 10^5 CFU/ml. The 10 µl peptide and 90 µl cell suspension were added into each well. All assays were performed in triplicate. The antimicrobial activity of NZ2114 and vancomycin were tested as positive controls. The plates were incubated at 37 °C for 18–24 h. MIC was defined as the lowest peptide concentration of ones at which there was no visible growth (Tian et al. [2009]).

S. suis CVCC606 = assay: MIC assay; format: cell-based, Streptococcus suis; details: MHB, 1 × 10^5 CFU/ml, 37 °C, 18–24 h, triplicate
Description: as §1

S. suis CVCC3928 = assay: MIC assay; format: cell-based, Streptococcus suis; details: MHB, 1 × 10^5 CFU/ml, 37 °C, 18–24 h, triplicate
Description: as §1

E. coli CICC21530 = assay: MIC assay; format: cell-based, Escherichia coli; details: MHB, 1 × 10^5 CFU/ml, 37 °C, 18–24 h, triplicate
Description: as §1

E. coli CVCC195 = assay: MIC assay; format: cell-based, Escherichia coli; details: MHB, 1 × 10^5 CFU/ml, 37 °C, 18–24 h, triplicate
Description: as §1

S. pneumoniae CVCC1.8722 = assay: MIC assay; format: cell-based, Streptococcus pneumoniae; details: MHB, 1 × 10^5 CFU/ml, 37 °C, 18–24 h, triplicate
Description: as §1

S. pneumoniae CVCC2350 = assay: MIC assay; format: cell-based, Streptococcus pneumoniae; details: MHB, 1 × 10^5 CFU/ml, 37 °C, 18–24 h, triplicate
Description: as §1

S. aureus ATCC25923 = assay: MIC assay; format: cell-based, Staphylococcus aureus; details: MHB, 1 × 10^5 CFU/ml, 37 °C, 18–24 h, no visible growth, triplicate
Description: as §1

S. aureus ATCC6538 = assay: MIC assay; format: cell-based, Staphylococcus aureus; details: MHB, 1 × 10^5 CFU/ml, 37 °C, 18–24 h, no visible growth, triplicate
Description: as §1

S. aureus ATCC43300 [1] = assay: Effect of NaCl concentration on activity (MIC); format: cell-based, Staphylococcus aureus
Description: as §1
(§2) The effect of pH, temperature, NaCl concentration and proteinase on the activity of peptides was evaluated. Peptides were diluted twofold, then adjusted to a pH range from 2.0 to 10.0 and incubated at 37 °C for 4 h. The thermal stability of purified peptides was determined after 1-h incubation of peptides at 4, 20, 40, 60, 80 and 100 °C in deionized water, respectively. Aliquots of peptides were incubated in various proteinases solutions [pepsin (pH 2.0), trypsin (pH 8.0), proteinase K (pH 7.0)] at a ratio of 1:10, w/w (proteinase: peptide) at 37 °C for 3 h. For the ion stability, peptides were incubated in 50, 100, 200, 300, 400, 500 mM sodium chloride solutions, respectively. Other methods and conditions were prepared as the MIC assay described above (Li et al. [2015]; Qu et al. [2016]).

S. aureus ATCC43300 [2] = assay: Effect of temperature on activity (MIC); format: cell-based, Staphylococcus aureus; details: then MIC assay
Description: as §1, §2

With CC[C@H](C)[C@@H]1NC(=O)[C@H](CO)NC(=O)[C@H](CCCCN)NC(=O)[C@@H]2CSSC[C@@H](C(=O)N[C@@H](Cc3ccc(O)cc3)C(=O)O)NC(=O)[C@H](CCCCN)NC(=O)[C@@H]3CSSC[C@H](NC(=O)[C@H](CCCNC(=N)N)NC(=O)[C@H](CC(C)C)NC(=O)[C@H](CC(=O)O)NC(=O)[C@H](CC(=O)O)NC(=O)[C@H](CCC(=O)O)NC(=O)[C@H](CC(N)=O)NC(=O)[C@H](Cc4c[nH]c5ccccc45)NC(=O)[C@@H]4CCCN4C(=O)CNC(=O)[C@H](CC(N)=O)NC(=O)[C@@H](NC(=O)CNC(=O)[C@H](Cc4ccccc4)NC(=O)CN)CSSC[C@H](NC(=O)[C@H](Cc4ccc(O)cc4)NC(=O)CNC(=O)CNC(=O)[C@H](CCCCN)NC(=O)[C@H](Cc4ccc(O)cc4)NC(=O)CNC(=O)[C@H](CCCCN)NC1=O)C(=O)N[C@@H](C)C(=O)N[C@@H](CCCCN)C(=O)NCC(=O)NCC(=O)N[C@@H](Cc1ccccc1)C(=O)N[C@@H](C(C)C)C(=O)N3)C(=O)N[C@@H](CCCNC(=N)N)C(=O)N[C@@H](CC(N)=O)C(=O)N[C@@H](Cc1c[nH]cn1)C(=O)N2 [H2] (H-GFGCNGPWNEDDLRCRNHCKSIKGYKGGYCAKGGFVCKCY-OH; disulfide 4-30, 15-37, 19-39 (inferred); N-terminus and C-terminus assumed) the MIC (S. suis CVCC3309) was 0.028 µM (≈ 0.124 µg/mL), the MIC (S. suis CVCC606) was 0.028 µM (≈ 0.124 µg/mL) and the MIC (S. suis CVCC3928) was 0.014 µM (≈ 0.062 µg/mL). For the same compound, the MIC (E. coli CICC21530) was >7.273 µM, the MIC (E. coli CVCC195) was >7.273 µM and the MIC (S. pneumoniae CVCC1.8722) was 0.227 µM (≈ 1.01 µg/mL). It also gave an MIC (S. pneumoniae CVCC2350) of 0.227 µM (≈ 1.01 µg/mL), an MIC (S. aureus ATCC25923) of 0.028 µM (≈ 0.124 µg/mL) and an MIC (S. aureus ATCC6538) of 0.057 µM (≈ 0.253 µg/mL). For the same compound, the “MIC in 50 mM NaCl” value (S. aureus ATCC43300 [1]; incubated in 50 mM sodium chloride solution) was 0.114 µM (≈ 0.505 µg/mL), the “MIC in 100 mM NaCl” value (S. aureus ATCC43300 [1]; incubated in 100 mM sodium chloride solution) was 0.114 µM (≈ 0.505 µg/mL) and the “MIC in 300 mM NaCl” value (S. aureus ATCC43300 [1]; incubated in 300 mM sodium chloride solution) was 0.227 µM (≈ 1.01 µg/mL). The “MIC in 400 mM NaCl” value (S. aureus ATCC43300 [1]; incubated in 400 mM sodium chloride solution) was 0.227 µM (≈ 1.01 µg/mL), the “MIC in 500 mM NaCl” value (S. aureus ATCC43300 [1]; incubated in 500 mM sodium chloride solution) was 0.227 µM (≈ 1.01 µg/mL) and the “MIC after incubation at 4 °C” value (S. aureus ATCC43300 [2]; 1 h at 4 °C in deionized water) was 0.114 µM (≈ 0.505 µg/mL). The “MIC after incubation at 20 °C” value (S. aureus ATCC43300 [2]; 1 h at 20 °C in deionized water) was 0.114 µM (≈ 0.505 µg/mL), the “MIC after incubation at 40 °C” value (S. aureus ATCC43300 [2]; 1 h at 40 °C in deionized water) was 0.114 µM (≈ 0.505 µg/mL) and the “MIC after incubation at 60 °C” value (S. aureus ATCC43300 [2]; 1 h at 60 °C in deionized water) was 0.114 µM (≈ 0.505 µg/mL).
